Test results reported in patent publication US8252832B2, “Kinesin inhibitors as cancer therapeutics” (Novartis AG, priority 2007, dated 2012).
Read-outs that look alike come from different tables or passages of the source.

System: panel of cell lines and tumor explants
Assay: Soft agar (clonogenic) assay on cell lines and tumor explants
Assay type: cell-based, human
Set-up: key to Differential: panel average log(GI50) minus sample log(GI50); positive = more sensitive
Conditions: for Differential: average log(GI50) 0.236 minus log(GI50); for GI50: Homo sapiens
Description: Compound IIa was tested against a panel of cell lines and tumor explants in a soft agar assay as described in Fiebig, H. H., Maier, A., and Burger, A. M. (Clonogenic assay with established human tumour xenorafts: correlation of in vitro to in vivo activity as a basis for anticancer drug discovery, Eur. J. Cancer 40, 802-820 (2004).) Table 16 lists the type of cancer, the name of the sample, its GI50 (concentration needed to achieve 50% growth inhibition) value in the assay, the logarithm of the GI50 (log(GI50), and the relative sensitivity of each sample (Differential). The differential is calculated by subtracting the log(GI50) for each cell line from the average log(GI50) across the entire panel (0.236 in this case); a positive value indicates a sample that is more sensitive than average, whereas a negative value indicates a sample that is less sensitive than average.

## CC(C)(C)[C@H](c1nc(-c2cc(F)ccc2F)cn1Cc1ccccc1)N(CC[C@H](N)CF)C(=O)CO [Compound IIa]
Bladder, sample 439
  Differential: −0.764
Bladder, sample 1036
  Differential: 1.176
Bladder, sample 1218
  Differential: 0.530
Bladder, sample 1228
  Differential: 0.738
Bladder, sample 1258
  Differential: −0.996
Bladder, sample 1352
  Differential: 0.249
Breast, sample 401
  Differential: 0.486
Breast, sample 449
  Differential: 0.509
Breast, sample 574
  Differential: −0.764
Breast, sample 583
  Differential: 0.858
Breast, sample 713
  Differential: 0.849
Breast, sample 857
  Differential: −0.154
Breast, sample 1162
  Differential: 0.780
Breast, sample 1322
  Differential: 0.090
Breast, sample 1384
  Differential: −0.189
Breast, sample 1398
  Differential: 0.858
Colorectal, sample 94LX
  Differential: −1.054
Colorectal, sample 158
  Differential: −0.764
Colorectal, sample 233
  Differential: 0.860
Colorectal, sample 243
  Differential: −0.764
Colorectal, sample 260
  Differential: −0.764
Colorectal, sample 268
  Differential: −0.559
Colorectal, sample 280
  Differential: −0.764
Colorectal, sample 504
  Differential: 0.800
Colorectal, sample 533
  Differential: −0.007
Colorectal, sample 609
  Differential: −0.764
Colorectal, sample 647
  Differential: −0.764
Colorectal, sample 676
  Differential: −0.764
Colorectal, sample 742
  Differential: −0.036
Colorectal, sample 975
  Differential: −0.764
Colorectal, sample 1034
  Differential: 0.906
Colorectal, sample 1044
  Differential: 0.450
Colorectal, sample 1103
  Differential: 0.236
Colorectal, sample 1297
  Differential: −0.764
Colorectal, sample 1299
  Differential: −0.764
Colorectal, sample 1729
  Differential: −0.764
Colorectal, sample 1753
  Differential: −0.816
Colorectal, sample 1783
  Differential: 0.378
Colorectal, sample 1784
  Differential: −0.539
Colorectal, sample 1788
  Differential: −0.115
Gastric, sample 209
  Differential: −0.764
Gastric, sample 214
  Differential: −0.718
Gastric, sample 1172
  Differential: −0.764
22Rv1, Prostate, sample 22RV1, GI50 in nM, read-out: log(GI50) (converted)
  GI50: 0.537 nM
22Rv1, Prostate, sample 22RV1, read-out: GI50
  GI50: 0.537 nM
Bladder, sample 439, GI50 in nM, read-out: log(GI50) (converted)
  GI50: ≥ 10 nM
Bladder, sample 439, read-out: GI50
  GI50: 10 nM
Bladder, sample 1036, GI50 in nM, read-out: log(GI50) (converted)
  GI50: 0.115 nM
Bladder, sample 1036, read-out: GI50
  GI50: 0.115 nM
Bladder, sample 1218, GI50 in nM, read-out: log(GI50) (converted)
  GI50: 0.509 nM
Bladder, sample 1218, read-out: GI50
  GI50: 0.509 nM
Bladder, sample 1228, GI50 in nM, read-out: log(GI50) (converted)
  GI50: 0.315 nM
Bladder, sample 1228, read-out: GI50
  GI50: 0.315 nM
Bladder, sample 1258, GI50 in nM, read-out: log(GI50) (converted)
  GI50: 17.1 nM
Bladder, sample 1258, read-out: GI50
  GI50: 17.1 nM
Bladder, sample 1352, GI50 in nM, read-out: log(GI50) (converted)
  GI50: 0.973 nM
Bladder, sample 1352, read-out: GI50
  GI50: 0.972 nM
Breast, sample 401, GI50 in nM, read-out: log(GI50) (converted)
  GI50: 0.564 nM
Breast, sample 401, read-out: GI50
  GI50: 0.563 nM
Breast, sample 449, GI50 in nM, read-out: log(GI50) (converted)
  GI50: 0.535 nM
Breast, sample 449, read-out: GI50
  GI50: 0.534 nM
Breast, sample 574, GI50 in nM, read-out: log(GI50) (converted)
  GI50: ≥ 10 nM
Breast, sample 574, read-out: GI50
  GI50: 10 nM
Breast, sample 583, GI50 in nM, read-out: log(GI50) (converted)
  GI50: 0.239 nM
Breast, sample 583, read-out: GI50
  GI50: 0.239 nM
Breast, sample 713, GI50 in nM, read-out: log(GI50) (converted)
  GI50: 0.244 nM
Breast, sample 713, read-out: GI50
  GI50: 0.244 nM
Breast, sample 857, GI50 in nM, read-out: log(GI50) (converted)
  GI50: 2.45 nM
Breast, sample 857, read-out: GI50
  GI50: 2.46 nM
Breast, sample 1162, GI50 in nM, read-out: log(GI50) (converted)
  GI50: 0.286 nM
Breast, sample 1162, read-out: GI50
  GI50: 0.286 nM
Breast, sample 1322, GI50 in nM, read-out: log(GI50) (converted)
  GI50: 1.4 nM
Breast, sample 1322, read-out: GI50
  GI50: 1.4 nM
Breast, sample 1384, GI50 in nM, read-out: log(GI50) (converted)
  GI50: 2.67 nM
Breast, sample 1384, read-out: GI50
  GI50: 2.67 nM
Breast, sample 1398, GI50 in nM, read-out: log(GI50) (converted)
  GI50: 0.239 nM
Breast, sample 1398, read-out: GI50
  GI50: 0.239 nM
CCRF-CEM, Leukemia (ALL), sample CCRFCEM, GI50 in nM, read-out: log(GI50) (converted)
  GI50: 0.287 nM
CCRF-CEM, Leukemia (ALL), sample CCRFCEM, read-out: GI50
  GI50: 0.287 nM
Colorectal, sample 94LX, GI50 in nM, read-out: log(GI50) (converted)
  GI50: 19.5 nM
Colorectal, sample 94LX, read-out: GI50
  GI50: 19.5 nM
Colorectal, sample 158, GI50 in nM, read-out: log(GI50) (converted)
  GI50: ≥ 10 nM
Colorectal, sample 158, read-out: GI50
  GI50: 10 nM
Colorectal, sample 233, GI50 in nM, read-out: log(GI50) (converted)
  GI50: 0.238 nM
Colorectal, sample 233, read-out: GI50
  GI50: 0.238 nM
Colorectal, sample 243, GI50 in nM, read-out: log(GI50) (converted)
  GI50: ≥ 10 nM
Colorectal, sample 243, read-out: GI50
  GI50: 10 nM
Colorectal, sample 260, GI50 in nM, read-out: log(GI50) (converted)
  GI50: ≥ 10 nM
Colorectal, sample 260, read-out: GI50
  GI50: 10 nM
Colorectal, sample 268, GI50 in nM, read-out: log(GI50) (converted)
  GI50: 6.24 nM
Colorectal, sample 268, read-out: GI50
  GI50: 6.24 nM
Colorectal, sample 280, GI50 in nM, read-out: log(GI50) (converted)
  GI50: ≥ 10 nM
Colorectal, sample 280, read-out: GI50
  GI50: 10 nM
Colorectal, sample 504, GI50 in nM, read-out: log(GI50) (converted)
  GI50: 0.273 nM
Colorectal, sample 504, read-out: GI50
  GI50: 0.273 nM
Colorectal, sample 533, GI50 in nM, read-out: log(GI50) (converted)
  GI50: 1.75 nM
Colorectal, sample 533, read-out: GI50
  GI50: 1.75 nM
Colorectal, sample 609, GI50 in nM, read-out: log(GI50) (converted)
  GI50: ≥ 10 nM
Colorectal, sample 609, read-out: GI50
  GI50: 10 nM
Colorectal, sample 647, GI50 in nM, read-out: log(GI50) (converted)
  GI50: ≥ 10 nM
Colorectal, sample 647, read-out: GI50
  GI50: 10 nM
Colorectal, sample 676, GI50 in nM, read-out: log(GI50) (converted)
  GI50: ≥ 10 nM
Colorectal, sample 676, read-out: GI50
  GI50: 10 nM
Colorectal, sample 742, GI50 in nM, read-out: log(GI50) (converted)
  GI50: 1.87 nM
Colorectal, sample 742, read-out: GI50
  GI50: 1.87 nM
Colorectal, sample 975, GI50 in nM, read-out: log(GI50) (converted)
  GI50: ≥ 10 nM
Colorectal, sample 975, read-out: GI50
  GI50: 10 nM
Colorectal, sample 1034, GI50 in nM, read-out: log(GI50) (converted)
  GI50: 0.214 nM
Colorectal, sample 1034, read-out: GI50
  GI50: 0.214 nM
Colorectal, sample 1044, GI50 in nM, read-out: log(GI50) (converted)
  GI50: 0.612 nM
Colorectal, sample 1044, read-out: GI50
  GI50: 0.612 nM
Colorectal, sample 1103, GI50 in nM, read-out: log(GI50) (converted)
  GI50: 1 nM
Colorectal, sample 1103, read-out: GI50
  GI50: 1 nM
Colorectal, sample 1297, GI50 in nM, read-out: log(GI50) (converted)
  GI50: ≥ 10 nM
Colorectal, sample 1297, read-out: GI50
  GI50: 10 nM
Colorectal, sample 1299, GI50 in nM, read-out: log(GI50) (converted)
  GI50: ≥ 10 nM
Colorectal, sample 1299, read-out: GI50
  GI50: 10 nM
Colorectal, sample 1729, GI50 in nM, read-out: log(GI50) (converted)
  GI50: ≥ 10 nM
Colorectal, sample 1729, read-out: GI50
  GI50: 10 nM
Colorectal, sample 1753, GI50 in nM, read-out: log(GI50) (converted)
  GI50: 11.3 nM
Colorectal, sample 1753, read-out: GI50
  GI50: 11.3 nM
Colorectal, sample 1783, GI50 in nM, read-out: log(GI50) (converted)
  GI50: 0.721 nM
Colorectal, sample 1783, read-out: GI50
  GI50: 0.721 nM
Colorectal, sample 1784, GI50 in nM, read-out: log(GI50) (converted)
  GI50: 5.97 nM
Colorectal, sample 1784, read-out: GI50
  GI50: 5.97 nM
Colorectal, sample 1788, GI50 in nM, read-out: log(GI50) (converted)
  GI50: 2.24 nM
Colorectal, sample 1788, read-out: GI50
  GI50: 2.25 nM
DU-145, Prostate, sample DU145, GI50 in nM, read-out: log(GI50) (converted)
  GI50: 1 nM
DU-145, Prostate, sample DU145, read-out: GI50
  GI50: 1 nM
Gastric, sample 209, GI50 in nM, read-out: log(GI50) (converted)
  GI50: ≥ 10 nM
Gastric, sample 209, read-out: GI50
  GI50: 10 nM
Gastric, sample 214, GI50 in nM, read-out: log(GI50) (converted)
  GI50: 8.99 nM
Gastric, sample 214, read-out: GI50
  GI50: 9 nM
Gastric, sample 1172, GI50 in nM, read-out: log(GI50) (converted)
  GI50: ≥ 10 nM
Gastric, sample 1172, read-out: GI50
  GI50: 10 nM
Jurkat, Leukemia (ALL), sample JURKAT, GI50 in nM, read-out: log(GI50) (converted)
  GI50: 0.106 nM
Jurkat, Leukemia (ALL), sample JURKAT, read-out: GI50
  GI50: 0.106 nM
K562, Leukemia (CML), sample K562, GI50 in nM, read-out: log(GI50) (converted)
  GI50: 0.27 nM
K562, Leukemia (CML), sample K562, read-out: GI50
  GI50: 0.27 nM
MOLT-4, Leukemia (ALL), sample MOLT4, GI50 in nM, read-out: log(GI50) (converted)
  GI50: 0.877 nM
